Laboratory results published in patent publication US8957093B2, “N-biphenylmethylindole modulators of PPARG” (The Scripps Research Institute, priority 2011, dated 2015).
Like-named read-outs stand apart in the source and are kept apart here.

How the values were obtained:
[1] = target: GST-PPARG-LBD (Homo sapiens (Human), UniProt P37231); assay: Lanthascreen PPARG competitive binding assay (Invitrogen, TR-FRET); details: inc = incomplete curve, NA = not active, read-out: IC50 (nM) Lantha
How it was run: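 TR-FRET competitive binding of GST-PPARG-LBD with 5 nM Tb-GST-antibody and 5 nM Fluormone Pan-PPAR Green tracer, in TR-FRET buffer C. Compound serially diluted from 10 μM, 2 h dark incubation, in triplicate. Readout is 520/490 nm emission ratio (340 nm excitation), expressed as fold change over 2% DMSO control.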

[2] = system: PPARG (murine PPARg2 or full-length human PPARG, 3xPPRE-luciferase reporter); assay: Cell-based PPRE-luciferase transactivation assay in COS-1 cells; details: for % transactivation (PPRE): PPRE transactivation data, at 10 μM
Experimental: (§1) Cell-Based Transactivation Assay:
(§2) PPRE is a DNA that contains a binding site for PPARG; thus PPRE is a PPAR response element, used herein as a promoter reporter. The binding site is a DR1 response element with the sequence AGGTCA repeated 3 times in tandem and then fused to a construct for luciferase.
(§3) Thus, PPRE is the basis of the cell based transactivation assay described below. The plasmid DNA is co-transfected along with a plasmid for PPARG into COS-1 cells. After an overnight incubation, cells are treated with DMSO or compounds.
(§4) Confluent COS-1 cells were transfected with 4.5 μg murine PPARg2-pSV Sport or full-length human PPAR9-pSport6, 4.5 μg 3×PPRE-luciferase reporter and 27 μL X-treme Gene 9 transfection reagent in serum-free opti-mem media (Gibco), followed by overnight incubation at 37° C., 5% CO2. Transfected cells were plated in white Perkin Elmer 384-well plates and incubated 4 hours. […] After 18 hour incubation, treated cells were developed with Brite Lite Plus (Perkin Elmer) and read in 384-well Luminescence Perkin Elmer EnVision Multilabel plate reader. Graphs were plotted in triplicate in GraphPad Prism Software as fold change of treated cells over DMSO control cells.

[3] = target: PPARG (murine PPARg2 or full-length human PPARG, 3xPPRE-luciferase reporter) (Homo sapiens, UniProt P37231); assay: as above; details: PPRE transactivation data; read-out: PPRE EC50
Experimental: as §1, §2, §3, §4

[4] = system: pre-adipose cell lines; assay: Fat cell differentiation (Oil Red O staining, adipogenic gene expression); type: cell-based
[5] = system: MC3T3-E1 cells; assay: Mineralization of osteoblastic cells (Alizarin red S staining, osteoblast gene expression); type: cell-based, mouse
Description: Moreover, the expression of genes involved in the differentiation of these cells was impaired (alkaline phosphatase, RANKL, type I collagen).

[6] = system: RAW264.7 cells; assay: Inflammatory cytokine production in LPS stimulated RAW264.7 cells; type: cell-based
[7] = system: ob/ob mouse; assay: Leptin-deficient ob/ob mouse model; details: ob/ob mice
Experimental: A more severe model of obesity is the leptin-deficient ob/ob mouse. These animals are very obese and insulin-resistant, with substantial compensatory hyperinsulinemia. […] Functional analyses were performed at days 5 and 11 after the start of treatments.
Longer treatments with these drugs allowed an assessment of certain side effects.

[8] = target: Rb protein (cdk5 substrate) (Homo sapiens (Human), UniProt Q00535); assay: cdk5 phosphorylation of Rb protein in vitro (Western blot); type: biochemical
Description: In order to develop a suitable ligand, we optimized compounds for (i) high binding affinity for PPARG, (ii) blocking the cdk5-mediated PPARG phosphorylation and (iii) lacking classical agonism. Classical agonism is defined here, as is standard in the nuclear receptor field, as an increased level of transcription through a tandem PPAR response element luciferase reporter (PPRE::Luc).

[9] = Lanthascreen competitive binding
[10] = PPRE-luciferase, COS-1 cells, NA = not active, read-out: EC50 (nM) PPRE

Chain of GST-PPARG-LBD (P37231 238-503): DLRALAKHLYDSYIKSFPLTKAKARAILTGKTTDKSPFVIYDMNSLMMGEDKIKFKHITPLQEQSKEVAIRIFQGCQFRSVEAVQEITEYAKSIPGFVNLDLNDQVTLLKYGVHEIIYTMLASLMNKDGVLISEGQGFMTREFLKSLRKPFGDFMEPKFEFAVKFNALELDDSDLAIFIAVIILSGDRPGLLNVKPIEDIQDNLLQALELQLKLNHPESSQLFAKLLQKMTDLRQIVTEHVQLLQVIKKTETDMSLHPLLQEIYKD
Chain of PPARG (murine PPARg2 or full-length human PPARG, 3xPPRE-luciferase reporter) (Homo sapiens, UniProt P37231) (P37231 whole entry, looked up): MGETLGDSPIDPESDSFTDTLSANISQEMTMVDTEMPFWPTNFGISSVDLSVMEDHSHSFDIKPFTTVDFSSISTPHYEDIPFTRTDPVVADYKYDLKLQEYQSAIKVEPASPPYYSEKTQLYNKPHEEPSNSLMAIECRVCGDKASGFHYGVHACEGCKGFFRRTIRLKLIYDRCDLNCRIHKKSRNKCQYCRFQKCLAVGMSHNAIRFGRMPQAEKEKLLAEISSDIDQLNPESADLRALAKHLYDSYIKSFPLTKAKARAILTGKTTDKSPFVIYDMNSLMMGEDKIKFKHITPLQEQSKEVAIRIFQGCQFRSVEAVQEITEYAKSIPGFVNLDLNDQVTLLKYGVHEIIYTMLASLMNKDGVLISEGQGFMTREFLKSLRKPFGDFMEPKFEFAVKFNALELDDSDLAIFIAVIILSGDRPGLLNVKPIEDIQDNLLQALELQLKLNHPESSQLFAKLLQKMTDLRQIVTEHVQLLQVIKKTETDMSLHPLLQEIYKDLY

Row | Compound | IC50 [1, 9] | PPRE transactivation (% in parentheses) ([2]; rosiglitazone = 100%) | EC50 [2, 10] | other results
1 | Cc1c(C)n(Cc2ccc(-c3ccccc3C(=O)O)cc2)c2ccc(C(=O)N[C@@H]3C[C@H]3c3ccccc3)cc12 [Example 294, 4′-((2,3-Dimethyl-5-(((1R,2S)-2-phenylcyclopropyl)carbamoyl)-1H-indol-1-yl)methyl)-[1,1′-biphenyl]-2-carboxylic acid] | – | – | – | IC50 ([1]; Lanthascreen PPARG competitive binding): 22 nM; % transactivation (PPRE) [2]: (28%); EC50 [3]: 517 nM
2 | Cc1cc2cc(C(=O)N[C@@H](C)c3ccc(Br)cc3)ccc2n1Cc1ccc(-c2ccccc2C(=O)O)cc1 [Example 135, (S)-4′-((5-((1-(4-Bromophenyl)ethyl)carbamoyl)-2-methyl-1H-indol-1-yl)methyl)-[1,1′-biphenyl]-2-carboxylic acid] | 80 nM | (0%) | – | –
3 | Cc1c(C)n(Cc2ccc(-c3ccccc3C(=O)O)cc2)c2ccc(C(=O)NCC3COc4ccccc4C3)cc12 (stereo not drawn) [Example 87, 4′-((5-(chroman-3-ylmethylcarbamoyl)-2,3-dimethyl-1H-indol-1-yl)methyl)biphenyl-2-carboxylic acid] | 17 nM | (18%) | 200 nM | –
4 | Cc1c(C)n(Cc2ccc(-c3ccccc3C(=O)O)cc2)c2ccc(C(=O)N[C@@H](C)c3cccc(Br)c3)cc12 [compound 30, (S)-4′-((5-((1-(3-Bromophenyl)ethyl)carbamoyl)-2,3-dimethyl-1H-indol-1-yl)methyl)-[1,1′-biphenyl]-2-carboxylic acid] | 58 nM | – | – | PPRE transactivation (% in parentheses) [2]: (18%); EC50 ([2]; read-out: EC50 (nM) PPRE): 20 nM
5 | Cc1c(C)n(Cc2ccc(-c3ccccc3C(=O)O)cc2)c2ccc(C(=O)NCc3cccc(S(C)(=O)=O)c3)cc12 [compound 4, 4′-((2,3-Dimethyl-5-(3-(methylsulfonyl)benzylcarbamoyl)-1H-indol-1-yl)methyl)biphenyl-2-carboxylic acid] | 230 nM | (0%) | – | –
6 | Cc1c(C)n(Cc2ccc(-c3ccccc3C(=O)O)cc2)c2ccc(C(=O)NCc3cccc(C(F)(F)F)c3)cc12 [Example 100, 4′-((2,3-dimethyl-5-(3-(trifluoromethyl)benzylcarbamoyl)-1H-indol-1-yl)methyl)biphenyl-2-carboxylic acid] | 191 nM | (21%) | 281 nM | –
7 | Cc1ccc(CNC(=O)c2ccc3c(c2)c(C)c(C)n3Cc2ccc(-c3ccccc3C(=O)O)cc2)o1 [Example 84, 4′-((2,3-dimethyl-5-((5-methylfuran-2-yl)methylcarbamoyl)-1H-indol-1-yl)methyl)biphenyl-2-carboxylic acid] | 12 nM | (17%) | 40 nM | –
8 | Cc1c(C)n(Cc2ccc(-c3ccccc3C(=O)O)cc2)c2ccc(C(=O)NCc3cccc(N)c3)cc12 [Example 80, 4′-((5-(3-aminobenzylcarbamoyl)-2,3-dimethyl-1H-indol-1-yl)methyl)biphenyl-2-carboxylic acid] | 13 nM | (20%) | 2700 nM | –
9 | Cc1c(C)n(Cc2ccc(-c3ccccc3C(=O)O)cc2)c2ccc(C(=O)NCCN3CCOCC3)cc12 [Example 85, 4′-((2,3-dimethyl-5-(2-morpholinoethylcarbamoyl)-1H-indol-1-yl)methyl)biphenyl-2-carboxylic acid] | > 1000 nM | (0%) | – | –
10 | Cc1c(C)n(Cc2ccc(-c3ccccc3C(=O)O)cc2)c2ccc(C(=O)NCc3ccc(N(C)C)cc3)cc12 [compound 11, 4′-((5-(4-(Dimethylamino)benzylcarbamoyl)-2,3-dimethyl-1H-indol-1-yl)methyl)biphenyl-2-carboxylic acid] | 13 nM | (29%) | 154 nM | –
11 | CN(CCOc1ccc(CC2SC(=O)NC2=O)cc1)c1ccccn1 (stereo not drawn) [rosiglitazone, reference compound] | – | […] | – | fat cell differentiation / lipid accumulation ([4]; Oil Red O staining): potently stimulated fat cell differentiation; expression of aP2, C/EBPα and Glut4 ([4]; genes linked to adipogenesis): increased expression; expression of osteoblast differentiation genes (alkaline phosphatase, RANKL, type I collagen) [5]: impaired; mineralization (calcification) ([5]; Alizarin red S staining): reduced the mineralization; production of inflammatory cytokines [6]: inhibition of production of inflammatory cytokines; glucose tolerance test [7]: markedly improved; insulin levels ([7]; after five days of treatment): substantially reduced; fasting glucose levels ([7]; after five days of treatment, vehicle 110±13): 88 ± 13 mg/dL; body fat / adiposity by MRI ([7]; longer treatment): increase in body fat; concentration of hemoglobin ([7]; longer treatment): […]; hematocrit (fluid retention) ([7]; longer treatment): characteristic decrease; body weight ([7]; longer treatment (11 days)): increase in body weight; activation of the PPRE reporter ([2]; COS-1 cells): […]; % transactivation (PPRE) [2]: […]; EC50 ([2]; read-out: EC50 (nM) PPRE): […]; EC50 ([2]; read-out: PPRE EC50): […]; effect on cdk5 phosphorylation of the Rb protein [8]: no effect
12 | Cc1c(C)n(Cc2ccc(-c3ccccc3C(=O)O)cc2)c2ccc(C(=O)NCc3ccc(N)cc3)cc12 [Example 95, 4′-((5-(4-aminobenzylcarbamoyl)-2,3-dimethyl-1H-indol-1-yl)methyl)biphenyl-2-carboxylic acid] | 4 nM | (0%) | – | –
13 | COC(=O)c1ccc(CNC(=O)c2ccc3c(c2)c(C)c(C)n3Cc2ccc(-c3ccccc3C(=O)O)cc2)cc1 [compound 16, 4′-((5-(4-(Methoxycarbonyl)benzylcarbamoyl)-2,3-dimethyl-1H-indol-1-yl)methyl)biphenyl-2-carboxylic acid] | 2 nM | (23%) | 59 nM | –
14 | CCC(NC(=O)c1ccc2c(ccn2Cc2ccc(-c3ccccc3C(=O)O)cc2)c1)c1ccccc1 (stereo not drawn) [Example 131, 4′-((5-((1-Phenylpropyl)carbamoyl)-1H-indol-1-yl)methyl)-[1,1′-biphenyl]-2-carboxylic acid] | 6 nM | (20%) | 6 nM | –
15 | Cc1c(C)n(Cc2ccc(-c3ccccc3C(=O)O)cc2)c2ccc(C(=O)N[C@@H](C)c3ccc(Cl)cc3)cc12 [compound 27, (S)-4′-((5-((1-(4-Chlorophenyl)ethyl)carbamoyl)-2,3-dimethyl-1H-indol-1-yl)methyl)-[1,1′-biphenyl]-2-carboxylic acid] | 53 nM | (6%) | 33 nM | –
16 | Cc1c(C)n(Cc2ccc(-c3ccccc3C(=O)O)cc2)c2ccc(C(=O)NC3COc4ccccc4C3)cc12 (stereo not drawn) [Example 86, 4′-((5-(chroman-3-ylcarbamoyl)-2,3-dimethyl-1H-indol-1-yl)methyl)biphenyl-2-carboxylic acid] | 10 nM | (0%) | – | –
17 | CCC(NC(=O)c1ccc2c(ccn2Cc2ccccc2-c2cccc(C(=O)O)c2)c1)c1ccccc1 (stereo not drawn) [Example 69, 2′-((5-((1-Phenylpropyl)carbamoyl)-1H-indol-1-yl)methyl)-[1,1′-biphenyl]-3-carboxylic acid] | 4 nM | (0%) | – | –
